Measurements from patent publication US20230293535A1, “ERBB/BTK INHIBITORS” (Dizal (Jiangsu) Pharmaceutical Co., Ltd., priority 2018, published 2023).
pIC50: −log10 of the molar value.

Columns and labels:
Type in all cases: cell-based
OCI-LY-10 cells = assay: BTK (wt) cell proliferation, OCI-LY-10 (CellTiter-Glo, 72 h); details: Homo sapiens, OCI-Ly10, 72 h, OCI-LY-10 cells, 72 h, CellTiter-Glo; read-out: BTK WT OCI-LY-10 GI50;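 further: viable cells quantified via cellular ATP luminescence, proliferation given as percent of DMSO control after subtracting a duplicate plate read at time of dosing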
Protocol: (§1) OCI-LY-10 at 3,750 cells/well, TMD-8 and Ri-1 at 2,000 cells/well, and DB at 1,250 cells/well, respectively, were sorted into 384-well plates in RPMI1640 medium with 10% FBS. After overnight incubation, all cells were incubated with compound at a series of concentrations. Meanwhile, a duplicated plate of each cell line was prepared for measuring G0 value. The dosed plates were further incubated for 72 hours and the number of viable cells was measured by CellTiter-Glo® Luminescent Cell Viability Assay (Promega), a luminescent method for determining the number of viable cells through measurement of cellular ATP concentration using Envision plate reader (PerkinElmer). The percentage of proliferation was calculated as: % Proliferation = 100 × (G3 value of sample well - G0 value)/(G3 value of DMSO control - G0 value).

[1] = target: T1, human EGFR exon 20 V769_D770insASV (Homo sapiens, UniProt P00533, INS769ASV); assay: EGFR Exon20 ASV insertion cellular phosphorylation inhibition (MSD pEGFR Y1068/total EGFR); details: Ba/F3 EGFR ASV ins cells, 4 h compound, p-EGFR(Y1068)/total EGFR;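 further: electrochemiluminescent readout on an MSD SECTOR Imager, IL3-independent transduced cells in medium with 1% FBS, compound concentration series at 37 °C and 5% CO2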
T1 construct: expressed in transfected cells; host or cells: Ba/F3 (DSMZ ACC-300), lentiviral transduction, puromycin selection, IL3 depletion
T1 sequence (P00533 with tags, fused parts or gaps INS769ASV): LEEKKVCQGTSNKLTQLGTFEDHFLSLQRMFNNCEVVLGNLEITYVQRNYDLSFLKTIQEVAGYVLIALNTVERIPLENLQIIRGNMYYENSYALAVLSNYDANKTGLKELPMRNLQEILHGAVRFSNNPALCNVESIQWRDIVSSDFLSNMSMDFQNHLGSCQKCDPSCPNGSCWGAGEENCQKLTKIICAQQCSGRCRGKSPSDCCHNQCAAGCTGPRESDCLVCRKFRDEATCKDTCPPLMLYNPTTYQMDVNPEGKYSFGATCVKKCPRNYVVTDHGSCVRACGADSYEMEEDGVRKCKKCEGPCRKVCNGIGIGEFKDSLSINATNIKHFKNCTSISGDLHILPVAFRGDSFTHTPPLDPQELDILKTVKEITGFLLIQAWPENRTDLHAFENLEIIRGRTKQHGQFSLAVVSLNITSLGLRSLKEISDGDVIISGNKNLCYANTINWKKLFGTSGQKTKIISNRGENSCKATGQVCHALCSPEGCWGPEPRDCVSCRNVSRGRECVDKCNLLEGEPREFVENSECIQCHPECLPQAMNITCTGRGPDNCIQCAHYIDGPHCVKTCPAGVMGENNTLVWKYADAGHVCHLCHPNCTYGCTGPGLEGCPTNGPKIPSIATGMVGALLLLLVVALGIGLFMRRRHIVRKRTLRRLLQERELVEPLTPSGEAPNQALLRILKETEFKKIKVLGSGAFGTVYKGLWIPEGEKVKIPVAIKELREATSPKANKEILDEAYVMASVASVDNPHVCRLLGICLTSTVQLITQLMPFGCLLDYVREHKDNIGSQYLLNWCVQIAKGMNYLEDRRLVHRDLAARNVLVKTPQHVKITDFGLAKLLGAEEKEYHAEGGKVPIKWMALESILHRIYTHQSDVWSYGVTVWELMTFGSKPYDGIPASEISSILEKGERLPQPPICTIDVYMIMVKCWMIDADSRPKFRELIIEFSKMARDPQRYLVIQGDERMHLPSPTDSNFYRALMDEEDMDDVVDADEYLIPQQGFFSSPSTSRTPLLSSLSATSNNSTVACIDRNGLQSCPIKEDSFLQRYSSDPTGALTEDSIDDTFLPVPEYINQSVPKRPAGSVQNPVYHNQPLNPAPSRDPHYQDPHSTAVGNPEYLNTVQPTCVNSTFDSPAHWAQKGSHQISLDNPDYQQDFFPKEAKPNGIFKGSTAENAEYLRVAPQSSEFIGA

TMD-8 cells = assay: BTK (wt) cell proliferation, TMD-8 (CellTiter-Glo, 72 h); details: Homo sapiens, TMD8, 72 h, TMD-8 cells, 72 h, CellTiter-Glo; read-out: BTK WT TMD-8 GI50;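 further: viable cells quantified by ATP-based luminescence, proliferation expressed as percent of DMSO control after subtracting a time-zero baseline plate read at dosing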
Protocol: as §1

[2] = target: T2, human EGFR exon 20 H773_V774insNPH (Homo sapiens, UniProt P00533, INS773NPH); assay: EGFR Exon20 NPH insertion cellular phosphorylation inhibition (MSD pEGFR Y1068/total EGFR); details: Ba/F3 EGFR NPH ins cells, 4 h compound, p-EGFR(Y1068)/total EGFR;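 further: IL3-independent Ba/F3 cells with constitutively phosphorylated EGFR, compound exposure at 37 °C under 5% CO2, electrochemiluminescent MSD measurement of the p-EGFR to total EGFR ratio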
T2 construct: host or cells: Ba/F3
T2 sequence (P00533 with tags, fused parts or gaps INS773NPH): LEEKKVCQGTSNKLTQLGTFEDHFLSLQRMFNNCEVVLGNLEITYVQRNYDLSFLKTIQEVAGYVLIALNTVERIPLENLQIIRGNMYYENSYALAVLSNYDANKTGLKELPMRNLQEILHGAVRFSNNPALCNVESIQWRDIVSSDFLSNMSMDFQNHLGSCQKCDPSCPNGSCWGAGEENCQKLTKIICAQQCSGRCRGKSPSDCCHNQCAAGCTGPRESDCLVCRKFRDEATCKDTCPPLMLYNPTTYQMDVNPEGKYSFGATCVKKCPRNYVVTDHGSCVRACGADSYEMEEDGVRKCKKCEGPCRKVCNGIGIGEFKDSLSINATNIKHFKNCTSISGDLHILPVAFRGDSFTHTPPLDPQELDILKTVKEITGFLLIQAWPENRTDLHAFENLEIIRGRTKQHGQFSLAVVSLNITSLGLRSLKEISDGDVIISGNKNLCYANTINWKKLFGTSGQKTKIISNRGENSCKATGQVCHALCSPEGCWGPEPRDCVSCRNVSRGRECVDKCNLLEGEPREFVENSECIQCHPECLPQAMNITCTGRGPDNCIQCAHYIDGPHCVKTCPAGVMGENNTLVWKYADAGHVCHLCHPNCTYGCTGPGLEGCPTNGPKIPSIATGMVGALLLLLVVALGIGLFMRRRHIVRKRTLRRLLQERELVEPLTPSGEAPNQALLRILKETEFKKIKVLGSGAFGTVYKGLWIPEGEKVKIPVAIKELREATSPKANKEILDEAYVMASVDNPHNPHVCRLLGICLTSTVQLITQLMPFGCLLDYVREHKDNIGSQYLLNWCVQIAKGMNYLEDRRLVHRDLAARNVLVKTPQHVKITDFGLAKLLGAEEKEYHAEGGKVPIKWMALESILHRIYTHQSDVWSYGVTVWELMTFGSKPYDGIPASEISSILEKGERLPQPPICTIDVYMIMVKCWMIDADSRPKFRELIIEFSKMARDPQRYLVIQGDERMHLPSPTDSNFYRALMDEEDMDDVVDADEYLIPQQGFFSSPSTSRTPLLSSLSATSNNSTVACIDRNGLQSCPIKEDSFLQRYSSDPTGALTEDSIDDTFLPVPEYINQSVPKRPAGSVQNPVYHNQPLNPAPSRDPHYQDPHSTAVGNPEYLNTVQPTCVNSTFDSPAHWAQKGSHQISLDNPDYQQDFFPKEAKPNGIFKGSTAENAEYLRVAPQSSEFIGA

WT EGFR cell line A-431 = assay: Cell proliferation, WT EGFR A431 (CellTiter-Glo, 72 h); details: Homo sapiens, A-431, 72 h, A431, 72 h proliferation; read-out: EGFR WT A431 GI50;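 further: proliferation from a luminescent ATP viability signal, expressed as 100 × (treated minus time-zero plate) over (DMSO control minus time-zero plate), cells grown with 10% FBS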
Ri-1 cells = assay: BTK (wt) cell proliferation, Ri-1 (CellTiter-Glo, 72 h); details: Ri-1, 72 h, Ri-1 cells, 72 h, CellTiter-Glo; read-out: BTK WT Ri-1 GI50;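 further: viable cells quantified as cellular ATP luminescence, proliferation normalized to a time-zero plate and the DMSO control, compounds tested across a dilution series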
Protocol: as §1

[3] = target: T3, human Her2 exon 20 insertion mutation YVMA (Homo sapiens, UniProt P04626, INS775YVMA); assay: Her2 Exon 20 YVMA insertion cellular phosphorylation inhibition (MSD p-Her2 Y1248/total Her2); details: Her2 YVMAins cells, 4 h compound;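 further: lentivirally transduced NIH-3T3 cells in 1% FBS medium, electrochemiluminescent MSD read-out, graded compound concentrations at 37 °C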
T3 construct: expressed in transfected cells; host or cells: NIH-3T3, lentiviral transduction, puromycin selection
Protocol: The resulting cell line expressed phosphorylated Her2 protein and its proliferation depended on the mutation gene, which could be used for in vitro PD and anti-proliferation assays.
One day before the test, WT or mutant cells were seeded in 96 well plates at appropriate concentrations with corresponding growth media supplemented with 1% FBS, and incubated overnight. The next day, tested compounds at a series of concentrations were added into each individual well of the plates, and the plates were incubated for 4 h at 37° C. with 5% CO2.
The EGFR (Y1068) phosphorylation level (activity) of cells in each well were then measured with MSD kit named “MULTI-SPOT®96 4-Spot HB Prototype EGFR Triplex [sequence]: pEGFR(Tyr1068),pEGFR(Tyr1173), Total EGFR” according to the manufacturer’s instruction (MESO SCALE DISCOVERY, Cat# N45ZB-1). The assay is an electrochemiluminescent method for determining both phosphorylated and total EGFR of cells with an MSD SECTOR® Imager and the ratio of p-EGFR/total EGFR can be generated by the machine. The Her2 (Y1248) phosphorylation level (activity) of cells in each well were measured with MSD Kit named “Phospho-ErbB2 (Tyr1248) Assay Whole Cell Lysate Kit” according to the manufacturer’s instruction (MESO SCALE DISCOVERY, Cat# K151CLD-3). The assay is an electrochemiluminescent method (MESO SCALE DISCOVERY) for determining both phosphorylated and total Her2 of cells with an MSD SECTOR® Imager and then the ratio of p-Her2/total Her2 can be generated by the machine.

[4] = test system: Her2 exon 20 insertion YVMA transduced NIH-3T3 cell line; assay: Cell proliferation, Her2 YVMAins NIH-3T3 (CellTiter-Glo, 72 h); details: Mus musculus, NIH3T3, 72 h, Her2 YVMAins cells, 72 h proliferation; read-out: Her2 Exon 20 YVMA insertion GI50;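 further: viable cells quantified by ATP luminescence, growth over a day-zero baseline plate expressed as percent of DMSO control growth, compound dilution series in 10% FBS medium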
Protocol: (§2) WT or mutant cells were seeded in 384 well plates at appropriate concentrations with corresponding growth media supplemented with 10% FBS, for each experiment, identical plates were prepared in duplicates, and the plates were incubated overnight. On the next day, one of each duplicated plates was dosed with tested compounds at a series of concentrations, and another one of the duplicated plate was analysied for G0 value. The dosed plates were incubate for another 72 h at 37° C. with 5% CO2 and the number of viable cells in each well of the G0 plates or the dosed plates were measured by CellTiter-Glo® Luminescent Cell Viability Assay (Promega). This assay is a luminescent method for determining the number viable cells through measurement of cellular ATP concentration by detection of luciferase activity. Detection reagents (15 µl) was dispensed into per well, and the plates were incubate for 30 min at room temperature. Then, the luminescence in each well was measured using the Envision plate reader (PerkinElmer). The percentage of proliferation was calculated based on the formula: %Proliferation= 100 × (G3 value of sample well-Go value)/(G3 value of DMSO control-Go value).

DB cells = assay: BTK (wt) cell proliferation, DB (CellTiter-Glo, 72 h); details: Homo sapiens, DB, DB cells, CellTiter-Glo, read-out: Non-BCR activated DB GI50;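 further: DB cells in 384-well plates given a dilution series of compound, viable cells read by ATP luminescence, growth expressed versus DMSO control after subtracting a time-zero plate reading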
WT EGFR = target: T4, WT EGFR (Homo sapiens, UniProt P00533); assay: WT EGFR cellular phosphorylation inhibition in A-431 (hEGF stimulated, MSD); details: A431 cells, 4 h compound, then 100 ng/ml hEGF 10 min;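 further: electrochemiluminescence read-out of EGFR Tyr1068 phosphorylation expressed as ratio to total EGFR, cells kept in medium with 1% FBS, compounds tested as a concentration series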
T4 construct: host or cells: A-431
T4 sequence (P00533 25-1210): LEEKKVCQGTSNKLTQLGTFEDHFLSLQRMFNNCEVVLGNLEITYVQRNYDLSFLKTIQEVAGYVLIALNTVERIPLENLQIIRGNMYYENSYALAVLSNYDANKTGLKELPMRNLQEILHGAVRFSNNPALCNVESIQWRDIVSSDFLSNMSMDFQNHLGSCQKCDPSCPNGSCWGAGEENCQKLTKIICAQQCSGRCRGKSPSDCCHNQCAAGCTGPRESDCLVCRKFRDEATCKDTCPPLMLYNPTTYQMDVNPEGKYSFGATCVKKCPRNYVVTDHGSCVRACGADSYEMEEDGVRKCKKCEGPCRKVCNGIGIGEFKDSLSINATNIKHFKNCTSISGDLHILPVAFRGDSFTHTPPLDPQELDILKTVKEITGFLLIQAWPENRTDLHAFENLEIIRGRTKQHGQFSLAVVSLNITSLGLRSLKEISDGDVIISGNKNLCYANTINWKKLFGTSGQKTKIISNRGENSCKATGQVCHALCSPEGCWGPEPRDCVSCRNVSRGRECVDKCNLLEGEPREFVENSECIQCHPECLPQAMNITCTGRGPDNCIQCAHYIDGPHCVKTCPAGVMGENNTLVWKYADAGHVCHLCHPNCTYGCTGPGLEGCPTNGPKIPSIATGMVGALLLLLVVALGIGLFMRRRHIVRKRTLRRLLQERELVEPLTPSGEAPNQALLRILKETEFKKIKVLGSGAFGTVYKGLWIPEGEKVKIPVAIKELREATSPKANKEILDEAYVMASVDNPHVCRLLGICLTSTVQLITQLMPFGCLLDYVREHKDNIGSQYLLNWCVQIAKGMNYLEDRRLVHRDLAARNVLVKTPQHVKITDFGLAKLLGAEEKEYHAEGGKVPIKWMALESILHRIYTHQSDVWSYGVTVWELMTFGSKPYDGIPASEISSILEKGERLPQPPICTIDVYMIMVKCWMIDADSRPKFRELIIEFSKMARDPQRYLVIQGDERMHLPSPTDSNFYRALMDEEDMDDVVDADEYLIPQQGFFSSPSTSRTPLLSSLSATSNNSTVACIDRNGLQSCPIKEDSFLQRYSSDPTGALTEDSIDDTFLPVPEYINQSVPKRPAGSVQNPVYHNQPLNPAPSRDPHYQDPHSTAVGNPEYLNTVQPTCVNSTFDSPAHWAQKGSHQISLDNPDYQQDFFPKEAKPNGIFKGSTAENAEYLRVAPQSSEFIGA

Ba/F3 EGFR ASV ins cells = assay: Cell proliferation, Ba/F3 EGFR ASV ins (CellTiter-Glo, 72 h); details: Ba/F3 EGFR, 72 h, Ba/F3 EGFR ASV ins, 72 h proliferation; read-out: EGFR Exon20 ASV insertion GI50;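 further: IL3-independent Ba/F3 cells transduced with EGFR V769_D770insASV, cellular ATP luminescence after compound exposure, growth relative to DMSO control with the day-0 baseline reading subtracted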
Ba/F3 EGFR NPH ins cells = assay: Cell proliferation, Ba/F3 EGFR NPH ins (CellTiter-Glo, 72 h); details: Ba/F3 EGFR, 72 h, Ba/F3 EGFR NPH ins, 72 h proliferation; read-out: EGFR Exon20 NPH insertion GI50;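 further: IL3-independent cells carrying constitutively phosphorylated EGFR, compound dilution series, viable cells quantified by ATP luminescence, growth relative to DMSO wells after subtracting pre-dosing (day 0) baseline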
[5] = test system: NCI-H1975 EGFR L858R/T790M cells; assay: Cell proliferation, NCI-H1975 EGFR L858R/T790M (CellTiter-Glo, 72 h); details: Homo sapiens, NCI-H1975, 72 h, NCI-H1975, 72 h proliferation; read-out: EGFR L858R and T790M mutation GI50;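 further: viable cells quantified by luciferase-based ATP luminescence, proliferation expressed relative to DMSO-treated wells (100%) after subtracting a parallel plate read at the time of dosing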
Protocol: as §2

EGFR L858R&T790M = target: T5, EGFR L858R&T790M (Homo sapiens, UniProt P00533, L858R/T790M); assay: EGFR L858R and T790M cellular phosphorylation inhibition in NCI-H1975 (MSD); details: NCI-H1975 cells, 4 h compound, p-EGFR(Y1068)/total EGFR; read-out: EGFR L858R and T790M mutation IC50;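 further: phosphorylated and total EGFR detected by electrochemiluminescence, cells exposed to compound in medium containing 1% FBS at 37 °C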
T5 construct: host or cells: NCI-H1975
T5 sequence (P00533 25-1210 T790M/L858R): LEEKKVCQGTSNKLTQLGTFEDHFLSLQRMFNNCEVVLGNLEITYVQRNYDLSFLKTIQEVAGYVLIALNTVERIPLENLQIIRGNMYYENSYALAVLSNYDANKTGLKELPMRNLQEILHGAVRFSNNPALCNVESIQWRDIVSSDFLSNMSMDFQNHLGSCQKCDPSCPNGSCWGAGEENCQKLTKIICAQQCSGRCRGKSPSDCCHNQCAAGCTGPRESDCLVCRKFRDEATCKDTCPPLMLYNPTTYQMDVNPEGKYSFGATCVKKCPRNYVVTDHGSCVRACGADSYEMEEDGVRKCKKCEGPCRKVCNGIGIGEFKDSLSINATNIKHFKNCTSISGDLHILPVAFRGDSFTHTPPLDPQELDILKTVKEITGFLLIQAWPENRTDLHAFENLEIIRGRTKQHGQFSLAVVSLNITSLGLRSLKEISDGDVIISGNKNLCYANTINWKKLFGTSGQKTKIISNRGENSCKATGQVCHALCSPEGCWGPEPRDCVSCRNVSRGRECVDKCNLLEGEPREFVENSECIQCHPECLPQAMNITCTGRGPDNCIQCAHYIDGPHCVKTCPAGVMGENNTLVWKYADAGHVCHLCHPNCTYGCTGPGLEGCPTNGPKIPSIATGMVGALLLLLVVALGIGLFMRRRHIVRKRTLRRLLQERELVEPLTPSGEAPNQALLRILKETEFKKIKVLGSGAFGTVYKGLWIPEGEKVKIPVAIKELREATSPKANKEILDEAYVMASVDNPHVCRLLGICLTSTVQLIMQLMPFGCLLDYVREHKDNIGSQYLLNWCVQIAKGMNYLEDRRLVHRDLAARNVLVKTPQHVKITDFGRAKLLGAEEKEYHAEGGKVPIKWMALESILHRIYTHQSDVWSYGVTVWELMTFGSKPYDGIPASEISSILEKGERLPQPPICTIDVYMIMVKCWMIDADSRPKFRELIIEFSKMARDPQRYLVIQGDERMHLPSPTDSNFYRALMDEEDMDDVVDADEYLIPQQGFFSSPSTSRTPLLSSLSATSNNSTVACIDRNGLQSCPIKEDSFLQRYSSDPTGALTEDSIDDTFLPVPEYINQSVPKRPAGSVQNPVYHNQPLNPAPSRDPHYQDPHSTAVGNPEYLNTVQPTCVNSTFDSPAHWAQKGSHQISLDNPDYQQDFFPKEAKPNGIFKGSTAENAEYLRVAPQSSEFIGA

| GI50 (OCI-LY-10 cells) [nM] | pIC50 [1] | pIC50 [2] | GI50 (WT EGFR cell line A-431) [nM] | pIC50 [3] | pIC50 (WT EGFR) | GI50 (Ba/F3 EGFR ASV ins cells) [nM] | GI50 (Ba/F3 EGFR NPH ins cells) [nM] | GI50 [5] [nM] | pIC50 (EGFR L858R&T790M) | SMILES | GI50 (TMD-8 cells) [nM] | GI50 (Ri-1 cells) [nM] | GI50 [4] [nM] | GI50 (DB cells) [nM] |
| --- | --- | --- | --- | --- | --- | --- | --- | --- | --- | --- | --- | --- | --- | --- |
| 15.1 | 7.89 | 7.96 | 13.6 | 8.30 | 7.71 | 25.7 | 22 | 2.1 | 9.05 | C=CC(=O)Nc1cc(Nc2ncnc(Nc3cc(Cl)c(F)cc3C(C)(C)O)n2)c(OC)cc1N1CCOC[C@@H]1CN(C)C [Compound 40, (S)-N-(5-(4-(5-chloro-4-fluoro-2-(2-hydroxypropan-2-yl)phenylamino)-1,3,5-triazin-2-ylamino)-2-(3-((dimethylamino)methyl)morpholino)-4-methoxyphenyl)acrylamide] | 15.1 | 11.9 | 43.4 | > 3000 |
| 1.57 | 8.17 | 7.90 | 13.8 | 8.05 | 7.88 | 21.8 | 23.2 | 1.6 | 9.10 | C=CC(=O)Nc1cc(Nc2ncnc(Nc3cc(F)c(Cl)cc3C(C)(C)O)n2)c(OC)cc1N1CC[C@@H]2CN(C)C[C@@H]21 [Compound 41, N-(5-(4-(4-chloro-5-fluoro-2-(2-hydroxypropan-2-yl)phenylamino)-1,3,5-triazin-2-ylamino)-4-methoxy-2-((3aR,6aR)-5-methylhexahydropyrrolo[3,4-b]pyrrol-1 (2H)-yl)phenyl)acrylamide] | 4.57 | 4.92 | 52.1 | > 3000 |
| 7.6 | 8.23 | 8.41 | 4.3 | 8.54 | 8.09 | 9.3 | 17.4 | 1.2 | 9.52 | C=CC(=O)Nc1cc(Nc2ncnc(Nc3cc(F)c(Cl)cc3C(C)(C)O)n2)c(OC)cc1N1CCC[C@@H]1CN(C)C [Compound 43, (R)-N-(5-(4-(4-chloro-5-fluoro-2-(2-hydroxypropan-2-yl)phenylamino)-1,3,5-triazin-2-ylamino)-2-(2-((dimethylamino)methyl)pyrrolidin-1-yl)-4-methoxyphenyl)acrylamid] | 13.6 | 28.5 | 27.6 | > 3000 |
| 6.75 | 7.90 | 8.17 | 14.8 | 8.10 | 7.51 | 29.8 | 39 | 3.6 | 9.30 | C=CC(=O)Nc1cc(Nc2ncnc(Nc3cc(Cl)c(F)cc3C(C)(C)O)n2)c(OC)cc1N(C)C[C@@H]1CCCN1C [Compound 44, (S)-N-(5-(4-(5-chloro-4-fluoro-2-(2-hydroxypropan-2-yl)phenylamino)-1,3,5-triazin-2-ylamino)-4-methoxy-2-(methyl((1-methylpyrrolidin-2-yl)methyl)amino)phenyl) acrylamide] | 4.32 | 10.4 | 74.6 | > 3000 |
| 5.25 | 8.19 | 8.54 | 4.3 | 8.52 | 8.12 | 13.6 | 17.8 | 1.1 | 9.52 | C=CC(=O)Nc1cc(Nc2ncnc(Nc3cc(F)c(C4CC4)cc3C(C)(C)O)n2)c(OC)cc1N1CC[C@@H]2CN(C)C[C@@H]21 [Compound 45, N-(5-(4-(4-cyclopropyl-5-fluoro-2-(2-hydroxypropan-2-yl)phenylamino)-1,3,5-triazin-2-ylamino)-4-methoxy-2-((3aR,6aR)-5-methylhexahydropyrrolo[3,4-b]pyrrol-1(2H)-yl)phenyl)acrylamide] | 2.33 | 11.6 | 30.8 | > 3000 |
| 2.97 | 8.19 | 8.60 | 4.5 | 8.77 | 8.06 | 8.2 | 18.8 | 1.4 | 9.70 | C=CC(=O)Nc1cc(Nc2ncnc(Nc3cc(F)c(C4CC4)cc3C(C)(C)O)n2)c(OC)cc1N1CCC[C@@H]1CN(C)C [Compound 46, (R)-N-(5-(4-(4-cyclopropyl-5-fluoro-2-(2-hydroxypropan-2-yl)phenylamino)-1,3,5-triazin-2-ylamino)-2-(2-((dimethylamino)methyl)pyrrolidin-1-yl)-4-methoxyphenyl)acrylamide] | 0.9 | 6.49 | 16.8 | 2580 |
| 775 | 8.00 | 8.25 | 10.9 | 8.36 | 7.62 | 22.1 | 27.1 | 1.9 | 9.52 | C=CC(=O)Nc1cc(Nc2ncnc(Nc3cc(F)c(F)cc3C(C)(O)CC)n2)c(OC)cc1N1CC[C@@H]2CN(C)C[C@@H]21 (stereo partly drawn) [Compound 47, N-(5-(4-(4,5-difluoro-2-(2-hydroxybutan-2-yl)phenylamino)-1,3,5-triazin-2-ylamino)-4-methoxy-2-((3aR,6aR)-5-methylhexahydropyrrolo[3,4-b]pyrrol-1(2H)-yl)phenyl) acrylamide] | 55.3 | 208 | 34.1 | > 3000 |
| 14.1 | 7.79 | 7.95 | 14.1 | 8.55 | 7.55 | 29.1 | 57.9 | 3.2 | 9.40 | C=CC(=O)Nc1cc(Nc2ncnc(Nc3cc(F)c(F)cc3C(C)(O)CC)n2)c(OC)cc1N1CC[C@@H](N(C)C)C1 (stereo partly drawn) [Compound 48, N-(5-(4-(4,5-difluoro-2-(2-hydroxybutan-2-yl)phenylamino)-1,3,5-triazin-2-ylamino)-2-((R)-3-(dimethylamino)pyrrolidin-1-yl)-4-methoxyphenyl)acrylamide] | 70.2 | 371 | 57.9 | > 3000 |
| 1250 | 8.02 | 7.71 | 15.3 | 8.21 | 7.64 | 31.9 | 31.6 | 1.5 | 9.30 | C=CC(=O)Nc1cc(Nc2ncnc(Nc3cc(F)c(F)cc3C(C)(O)CC)n2)c(OC)cc1N(C)CCN(C)C (centres unmarked) [Compound 49, N-(5-(4-(4,5-difluoro-2-(2-hydroxybutan-2-yl)phenylamino)-1,3,5-triazin-2-ylamino)-2-((2-(dimethylamino)ethyl)(methyl)amino)-4-methoxyphenyl)acr ylamide] | 107 | 566 | 36.1 | > 3000 |
| 4.42 | 7.40 | 7.52 | 41.3 | 7.85 | 7.22 | 104 | 68 | 6.1 | 8.62 | C=CC(=O)Nc1cc(Nc2ncnc(Nc3cc(Cl)c(Cl)cc3C(C)(C)O)n2)c(OC)cc1N1CC[C@@H]1CN(C)C [Compound 54, (R)-N-(5-(4-(4,5-dichloro-2-(2-hydroxypropan-2-yl)phenylamino)-1,3,5-triazin-2-ylamino)-2-(2-((dimethylamino)methyl)azetidin-1-yl)-4-methoxyphenyl)acrylamide] | 3.62 | 9.97 | 210 | > 3000 |
